The values below come from patent US12428406B2 (PMV Pharmaceuticals, Inc., priority 2019, dated 2025).

In the assay the target is T1, p53 Y220C (Homo sapiens, UniProt P04637, Y220C).
T1 construct: The recombinant protein was a truncation mutant containing only amino acids 94-312 of p53; made in house; host or cells: E. coli
T1 sequence (P04637 94-312, change not shown): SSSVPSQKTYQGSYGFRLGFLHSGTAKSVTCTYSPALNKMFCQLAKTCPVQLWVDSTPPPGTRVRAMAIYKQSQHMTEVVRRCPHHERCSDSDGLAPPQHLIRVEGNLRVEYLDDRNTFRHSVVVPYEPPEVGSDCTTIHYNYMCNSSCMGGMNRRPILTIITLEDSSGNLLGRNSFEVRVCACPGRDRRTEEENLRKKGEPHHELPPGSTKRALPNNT
In words: In vitro DNA binding activity assay (HTRF / TR-FRET): stabilization of p53 Y220C and increase of its DNA binding activity. To be noted: recombinant His-tagged p53 Y220C DNA binding domain (aa 94-312), biotin-labeled consensus DNA, incubated at 27° C. or 29° C. for 60 min. The class given is biochemical. The essentials: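 Compounds from 4.5 mM DMSO stocks, 3-fold serial dilutions; room-temperature incubations of 15 and 20 min. SC150 = concentration raising DNA binding by 50% over no-compound control.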
For the compound `CCOc1cc(S(C)(=O)=O)ccc1NCC#Cc1cc2c(N[C@H]3CC[C@@H](N(C)C)CC3)cccc2n1CC(F)(F)F` [Compound 96A, (1S,4S)-N^4-(2-{3-[(2-ethoxy-4-methane-sulfonylphenyl)amino]prop-1-yn-1-yl}-1-(2,2,2-trifluoroethyl)-1H-indol-4-yl)-N^1,N^1-dimethylcyclohexane-1,4-diamine], the “SC150 (concentration of the compound required to increase the DNA binding activity by 50%)” value is “++ (++ = 0.05 μM ≤ SC150 < 0.1 μM)”. The result for `CNC(=O)c1ccc(NCC#Cc2cc3c(N[C@H]4CC[C@@H](N(C)C)CC4)cccc3n2CC(F)(F)F)c(O)c1` [Compound 97A, 3-hydroxy-N-methyl-4-{[3-(4-{[(1S,4S)-4-(dimethylamino)cyclo-hexyl]amino}-1-(2,2,2-trifluoroethyl)-1H-indol-2-yl)prop-2-yn-1-yl]amino}benzamide] reads “+ (+ = 0 μM ≤ SC150 < 0.05 μM)”. Consider `CNC(=O)c1ccc(NCC#Cc2cc3c(N[C@H]4CC[C@H](N(C)C)CC4)cccc3n2CC(F)(F)F)c(O)c1` [Compound 98A, 3-hydroxy-N-methyl-4-{[3-(4-{[(1R,4R)-4-(dimethylamino)cyclo-hexyl]amino}-1-(2,2,2-trifluoroethyl)-1H-indol-2-yl)prop-2-yn-1-yl]amino}benzamide], for which the “SC150 (concentration of the compound required to increase the DNA binding activity by 50%)” value is listed as “+ (+ = 0 μM ≤ SC150 < 0.05 μM)”. The result for `CNC(=O)c1ccc(NCC#Cc2cc3c(N[C@H]4CC[C@@H](N(C)C)CC4)cccc3n2CC(F)(F)F)c(OCCOC)c1` [Compound 99A, 3-(2-methoxyethoxy)-N-methyl-4-{[3-(4-{[(1S,4S)-4-(dimethyl-amino)cyclohexyl]amino}-1-(2,2,2-trifluoroethyl)-1H-indol-2-yl)prop-2-yn-1-yl]amino}benzamide] reads “+ (+ = 0 μM ≤ SC150 < 0.05 μM)”; that for `CN(C)[C@H]1CC[C@H](Nc2cccc3c2cc(C#CCOc2ccc(S(C)(=O)=O)cc2N)n3CC(F)(F)F)CC1` [Compound 100A, (1R,4R)-N^4-{2-[3-(2-amino-4-methane-sulfonylphenoxy)prop-1-yn-1-yl]-1-(2,2,2-trifluoroethyl)-1H-indol-4-yl}-N^1,N^1-dimethylcyclohexane-1,4-diamine], “+ (+ = 0 μM ≤ SC150 < 0.05 μM)”. For `CCNC(=O)c1ccc(NCC#Cc2cc3c(N[C@H]4CC[C@H](N(C)C)CC4)cccc3n2CC(F)(F)F)c(OC)c1` [Compound 101A, N-ethyl-3-methoxy-4-{[3-(4-{[(1R,4R)-4-(dimethylamino)cyclo-hexyl]amino}-1-(2,2,2-trifluoroethyl)-1H-indol-2-yl)prop-2-yn-1-yl]amino}benzamide], the “SC150 (concentration of the compound required to increase the DNA binding activity by 50%)” value is “+ (+ = 0 μM ≤ SC150 < 0.05 μM)”. As to `CCNC(=O)c1ccc(NCC#Cc2cc3c(N[C@H]4CC[C@@H](N(C)C)CC4)cccc3n2CC(F)(F)F)c(OC)c1` [Compound 102A, N-ethyl-3-methoxy-4-{[3-(4-{[(1S,4S)-4-(dimethylamino)cyclo-hexyl]amino}-1-(2,2,2-trifluoroethyl)-1H-indol-2-yl)prop-2-yn-1-yl]amino}benzamide], the “SC150 (concentration of the compound required to increase the DNA binding activity by 50%)” value is reported as “+ (+ = 0 μM ≤ SC150 < 0.05 μM)”. The entry for `CNC(=O)c1ccc(NCC#Cc2cc3c(N[C@H]4CC[C@H](N(C)C)CC4)cccc3n2CC(F)(F)F)c(OCCOC)c1` [Compound 103A, 3-(2-methoxyethoxy)-N-methyl-4-{[3-(4-{[(1R,4R)-4-(dimethylamino)cyclo-hexyl]amino}-1-(2,2,2-trifluoroethyl)-1H-indol-2-yl)prop-2-yn-1-yl]amino}benzamide] is “+ (+ = 0 μM ≤ SC150 < 0.05 μM)”; for `CNC(=O)c1ccc(NCC#Cc2cc3c(N[C@H]4CC[C@H](N(C)C)CC4)cccc3n2CC(F)(F)F)c(OCCF)c1` [Compound 104A, 3-(2-fluoroethoxy)-N-methyl-4-{[3-(4-{[(1R,4R)-4-(dimethyl-amino)cyclohexyl]amino}-1-(2,2,2-trifluoro-ethyl)-1H-indol-2-yl)prop-2-yn-1-yl]amino}benzamide] it is “+ (+ = 0 μM ≤ SC150 < 0.05 μM)”.

As to `CNC(=O)c1ccc(NCC#Cc2cc3c(N[C@H]4CC[C@@H](N(C)C)CC4)cccc3n2CC(F)(F)F)c(OCCF)c1` [Compound 105A, 3-(2-fluoroethoxy)-N-methyl-4-{[3-(4-{[(1S,4S)-4-(dimethyl-amino)cyclohexyl]amino}-1-(2,2,2-trifluoro-ethyl)-1H-indol-2-yl)prop-2-yn-1-yl]amino}benzamide], the “SC150 (concentration of the compound required to increase the DNA binding activity by 50%)” value is listed as “+ (+ = 0 μM ≤ SC150 < 0.05 μM)”. The entry for `CNC(=O)c1ccc(NCC#Cc2cc3c(N[C@H]4CC[C@H](N(C)C)CC4)cccc3n2CC(F)(F)F)c(OCF)c1` [Compound 106A, 3-(fluoromethoxy)-N-methyl-4-{[3-(4-{[(1R,4R)-4-(dimethyl-amino)cyclohexyl]amino}-1-(2,2,2-trifluoro-ethyl)-1H-indol-2-yl)prop-2-yn-1-yl]amino}benzamide] is “+ (+ = 0 μM ≤ SC150 < 0.05 μM)”; for `CNC(=O)c1ccc(NCC#Cc2cc3c(N[C@H]4CC[C@@H](N(C)C)CC4)cccc3n2CC(F)(F)F)c(OCF)c1` [Compound 107A, 3-(fluoromethoxy)-N-methyl-4-{[3-(4-{[(1S,4S)-4-(dimethyl-amino)cyclohexyl]amino}-1-(2,2,2-trifluoro-ethyl)-1H-indol-2-yl)prop-2-yn-1-yl]amino}benzamide] it is “+ (+ = 0 μM ≤ SC150 < 0.05 μM)”; for `CNc1cc(S(C)(=O)=O)ccc1OCC#Cc1cc2c(N[C@H]3CC[C@@H](N(C)C)CC3)cccc2n1CC(F)(F)F` [Compound 108A, (1S,4S)-N^4-(2-{3-[4-methanesulfonyl-2-(methylamino)phenoxy]prop-1-yn-1-yl}-1-(2,2,2-trifluoroethyl)-1H-indol-4-yl)-N^1,N^1-dimethylcyclohexane-1,4-diamine] it is “++ (++ = 0.05 μM ≤ SC150 < 0.1 μM)”. `CNc1cc(S(C)(=O)=O)ccc1OCC#Cc1cc2c(N[C@H]3CC[C@H](N(C)C)CC3)cccc2n1CC(F)(F)F` [Compound 109A, (1R,4R)-N^4-(2-{3-[4-methanesulfonyl-2-(methylamino)phenoxy]prop-1-yn-1-yl}-1-(2,2,2-trifluoroethyl)-1H-indol-4-yl)-N^1,N^1-dimethylcyclohexane-1,4-diamine]: the “SC150 (concentration of the compound required to increase the DNA binding activity by 50%)” value is “+ (+ = 0 μM ≤ SC150 < 0.05 μM)”.

As to `CNC(=O)c1ccc(NCC#Cc2cc3c(N[C@H]4CC[C@@H](NC)CC4)cccc3n2CC(F)(F)F)c(OC)c1` [Compound 110A, 3-methoxy-N-methyl-4-{[3-(4-{[(1S,4S)-4-(methylamino)cyclohexyl]amino}-1-(2,2,2-trifluoro-ethyl)-1H-indol-2-yl)prop-2-yn-1-yl]amino}benzamide], the “SC150 (concentration of the compound required to increase the DNA binding activity by 50%)” value is “+ (+ = 0 μM ≤ SC150 < 0.05 μM)”. The entry for `CN(C)c1cc(S(C)(=O)=O)ccc1OCC#Cc1cc2c(N[C@H]3CC[C@@H](N(C)C)CC3)cccc2n1CC(F)(F)F` [Compound 111A, (1S,4S)-N^4-(2-{3-[2-(dimethylamino)-4-methanesulfonyl-phenoxy]prop-1-yn-1-yl}-1-(2,2,2-trifluoroethyl)-1H-indol-4-yl)-N^1,N^1-dimethylcyclohexane-1,4-diamine] is “++++ (++++ = 0.2 μM ≤ SC150 < 1 μM)”.
